Results reported in PMC12728982, “Multichiral Half-Sandwich Ru(II) and Os(II) Anticancer Complexes Containing a Glutathione Synthesis Inhibitor” (Organometallics, 2025).

How the values were obtained:
IGROV-1 cells = experiment: Comet assay (DNA damage in single cells); format: cell-based, human; settings: IGROV-1, 24 h; 100 μM for Cisplatin and Os-Gly
Procedure: Comet assays were carried out to determine whether the complexes caused DNA damage in single cells. […] Cisplatin DNA-adducts have been shown previously to inhibit DNA migration through electrophoresis presenting as less tail movement. […] Excess dye was removed, and cells were re-suspended in PBS. Samples were analysed by flow cytometry using the BD FACSMelodyTM Cell Sorter (R653880001) and data analysis on FlowJoTM v10 Software (BD Life Sciences).9 2.11 Apoptosis IGROV-1 cells (1 x 106) were seeded in a 6-well plate and incubated for 24 h at 310 K. Stock solutions (200 μM) of the complexes were prepared by dissolving the compound in 5% (v/v) DMSO followed by dilution with DMEM and then diluted to desired concentrations. All complexes (50 μM and 100 μM) were added to the wells and incubated for 24 h. Cell pellets were collected using 0.25% trypsin and centrifuged (500 x g, 5 mins at 277 K). Cell pellets were washed with PBS and then stained with the commercial Apoptosis Detection Kit-FITC Annexin V and PI (BioLegend; San Diego, USA), as per manufacturer's instructions. Briefly, a staining solution of FITC Annexin V (1 unit/100 μL) diluted 1 in 100 and 1 μg/mL PI was added to the cells (30 min, room temperature). Excess dye was removed, and cells were re-suspended in PBS. Samples were analysed by flow cytometry using the BD FACSMelodyTM Cell Sorter (R653880001) and data analysis on FlowJoTM v10 Software (BD Life Sciences).9 2.12 Comet assay IGROV-1 cells (8×10^5 cells per well) were seeded into 6-well plates and incubated for 24 h. Test compounds (50 μM and 100 μM) were added to the wells and incubated at 3 10 K for 24 h. Cells were enzymatically detached using trypsin and cell concentration adjusted to 2×10^4 cells /mL in ice-cold PBS. 0.4 mL of cell suspension was added to 1.2 mL of 1% low melting point agarose in H 2O, then immediately added to microscope slides pre -coated in 1% agarose. […] Twenty comet images per sample were taken by confocal microscopy and analysed by OpenComet. […]

[1] = tested on: intracellular GSH in IGROV-1 cells; experiment: Glutathione colorimetric detection assay; format: cell-based, human; settings: IGROV-1, 50 μM, 24 h; statistical significance not confirmed
Procedure: This lowering was not observed for Ru-LBSO which is not active in this cell line. Other papers have shown a similar result by including L-BSO as an additional agent, therefore showing L-BSO remains inhibitory.
Once the agarose had set , the slides were submerged in alkaline lysis solution (1.3 M NaCl, 100 mM Na2EDTA, 0.1% sodium lauryl sarcosinate, 0.26 M NaOH pH > 13) and incubated overnight at 277 K in the dark. The following day the slides were rinsed for 20 min three times in the electrophoresis solution ([…] NaOH, 2mM Na 2EDTA pH 12.3). The slides were then placed into the electrophoresis tank with fresh electrophoresis buffer, 1 -2 mm above the slides. Electrophoresis was run at 18.3 V for 25 min. Once electrophoresis was complete, slides were rinsed in distilled water and placed in 2.5 µg/mL PI for 20 min. After staining, cells were rinsed in distilled water to remove excess stain. Twenty comet images per sample were taken by confocal microscopy and analysed by OpenComet. 10
1 x 10^6 IGROV-1 cells were seeded in a 6-well plate and incubated for 24 h at 310 K. All complexes (50 µM and 100 µM) were added to the wells and incubated for 24 h. […]
Percentage of IGROV -1 cancer cells in non -apoptotic, apoptotic (early and late) or necrotic phases determined by flow cytometry after 24 h treatment with Os/Ru L -BSO and glycine complexes. […] Standard deviations calculated for N=3. […]

For [(p-cymene)Os(L-BSO)Cl] [Os-LBSO], the “Comet tails vs untreated cells” value (IGROV-1 cells) was “trend toward longer comet tails but this was not significant” and the “Lowering of intracellular GSH level” value [1] was “ca. 50%”.
